The source of these data is patent US6184374A, “Targeted cytotoxic anthracycline analogs” (priority 1998, dated 2001).

As a reminder, the IC50 is the concentration needed to halve the response being measured. A lower IC50 goes with greater potency. As a reminder, the Ki is the dissociation constant of the complex between target and ligand, obtained from inhibition or displacement. The low end stands for a stronger hold on the target, the high end for a looser hold on the target.

In data set [1] the target is T1, rat pituitary receptors (Rattus norvegicus, UniProt P30969).
T1 construct: from tissue; host or cells: rat pituitary
T1 sequence (P30969 1-327): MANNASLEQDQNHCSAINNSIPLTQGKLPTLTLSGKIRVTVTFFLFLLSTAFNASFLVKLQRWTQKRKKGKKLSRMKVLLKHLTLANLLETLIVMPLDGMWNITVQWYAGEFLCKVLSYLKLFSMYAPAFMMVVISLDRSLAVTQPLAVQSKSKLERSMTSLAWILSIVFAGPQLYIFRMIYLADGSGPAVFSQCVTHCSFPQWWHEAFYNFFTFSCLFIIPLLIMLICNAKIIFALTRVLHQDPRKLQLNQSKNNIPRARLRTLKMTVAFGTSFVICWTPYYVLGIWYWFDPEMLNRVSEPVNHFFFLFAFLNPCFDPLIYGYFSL
Kind of data set: Receptor binding potency, rat pituitary receptors.

Data set [2] has as its target T2, breast cancer receptors (Homo sapiens, UniProt P30968).
T2 construct: from tissue
T2 sequence (P30968 1-328): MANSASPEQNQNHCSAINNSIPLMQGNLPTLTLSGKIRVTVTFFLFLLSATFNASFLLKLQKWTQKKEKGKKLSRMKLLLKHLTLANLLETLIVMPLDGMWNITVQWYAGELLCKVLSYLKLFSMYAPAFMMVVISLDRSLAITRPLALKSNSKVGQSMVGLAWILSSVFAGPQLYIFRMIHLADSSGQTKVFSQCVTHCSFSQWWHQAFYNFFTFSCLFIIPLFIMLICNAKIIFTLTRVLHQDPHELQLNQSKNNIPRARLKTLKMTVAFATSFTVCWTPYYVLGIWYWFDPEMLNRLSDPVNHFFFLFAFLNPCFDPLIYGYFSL
Kind of data set: Receptor binding potency, breast cancer receptors.

Data set [3] concerns estrogen independent MXT mouse mammary cancers. Kind of data set: Single treatment of estrogen independent MXT mouse mammary cancers (KS-55). The class given is in vivo. The following applies: single dose of 650 nmol/20 g mouse (as printed in text). Here is the method: In order to determine the maximum tolerated doses and compare the effects, MXT (3.2) ovex tumor pieces (1 mm^3) were implanted s.c. in female B6 D2 F1 mice. One day after transplantation the mice were randomly divided into groups of five animals and they were treated with a single injection i.p. The groups and doses are shown in the Table 25-1. […] The compounds were dissolved in 0.1% TFA (pH: 2.0). Tumor volume was measured on days 10, 13, 17, and 20.

The target of data set [4] is T3, bombesin receptors on Swiss 3T3 cell line (Mus musculus, UniProt P21729).
T3 construct: host or cells: Swiss 3T3 cells
Kind of data set: Displacement of [125I-Tyr4]BN binding on Swiss 3T3 cells. Here is the method:
Radio iodination of [Tyr^4 ]BN (Sigma) using a Bio-Rad Enzymobead Radio lodination kit and isolation of mono-iodinated [^125 l-Tyr^4 ]BN was performed as described earlier (1). […] Three to five days after seeding, the confluent cells were washed twice with Hanks' Balanced Salt Solution (HBSS) and incubated for 30 min at 37° C. with 50 pM [^125 l-Tyr^4 ]BN in the absence or presence of several concentrations of unlabeled competitors (Q6^14 gB or BN) in a total volume of 0.5 ml binding buffer (DMEM with 50 mM HEPES, 0.1% bovine serum albumin (BSA), 5 mM MgCl2 and 100 μg/ml bacitracin, pH: 7.4). Nonspecific binding was determined in the presence of 1 μM unlabeled ligand. After three washings with ice-cold HBSS containing 0.1% BSA (pH: 7.4) the cells were detached with 0.05% Trypsin/0.53 mM EDTA solution and transferred to tubes. Radioactivity was measured with a gamma-counter (Micromedic Systems Inc, Huntsville, Ala.). Binding data were evaluated using radio ligand binding analysis programs by McPherson (4). Ki values presented in Table 23-1, were calculated according to the formula of Cheng and Prusoff (5).
Background: Loss of bound radioactivity is the signal in a displacement assay; it reports binding, not function.

In data set [5] the test system is LH-responses. Kind of data set: Hormonal activity of LH-RH analogs (LH-responses rel. to LH-RH). The format is cell-based. The following applies: relative to LH-RH = 1.
The subject of data set [6] is estrogen independent MXT mouse mammary cancers. Kind of data set: Effect of cytotoxic LH-RH analogs on estrogen independent MXT mouse mammary cancers (KS-47). The format is in vivo. The following applies: daily dose of 30 nmol (equimolar) i.p. for 12 days. Here is the method: MXT (3.2) ovex tumor pieces (1 mm^3) were transplanted in female B6 D2 F1 mice. The treatment started one day after transplantation and was continued for 12 days by i.p. injections once a day. Tumors were measured on days 10, 14 and 18, and tumor volume was calculated.

T3 sequence (P21729 whole entry): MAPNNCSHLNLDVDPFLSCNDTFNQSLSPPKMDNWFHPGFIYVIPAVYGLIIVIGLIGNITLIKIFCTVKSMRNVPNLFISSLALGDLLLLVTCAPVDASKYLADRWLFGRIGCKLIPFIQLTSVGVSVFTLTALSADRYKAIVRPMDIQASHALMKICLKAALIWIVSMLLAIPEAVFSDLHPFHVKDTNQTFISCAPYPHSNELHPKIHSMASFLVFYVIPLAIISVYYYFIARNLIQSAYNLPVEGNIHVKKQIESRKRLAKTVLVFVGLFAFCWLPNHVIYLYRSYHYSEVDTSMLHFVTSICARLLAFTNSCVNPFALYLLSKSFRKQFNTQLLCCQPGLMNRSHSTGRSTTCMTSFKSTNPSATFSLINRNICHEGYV

Regarding `COc1cccc2c1C(=O)c1c(O)c3c(c(O)c1C2=O)C[C@@](O)(C(=O)COC(=O)CCCC(=O)NCCCC[C@@H](NC(=O)[C@H](Cc1ccc(O)cc1)NC(=O)[C@H](CO)NC(=O)[C@H](Cc1c[nH]c2ccccc12)NC(=O)[C@H](Cc1c[nH]cn1)NC(=O)[C@@H]1CCC(=O)N1)C(=O)N[C@@H](CC(C)C)C(=O)N[C@@H](CCCNC(=N)N)C(=O)N1CCC[C@H]1C(=O)NCC(N)=O)C[C@@H]3O[C@H]1C[C@H](N)[C@H](O)[C@H](C)O1` [Q1^14 gL, [D-Lys^6 (DOX^14 -O-glt)]LH-RH], the IC50 in data set [1] turned out to be 2.29 nM; in data set [2], 7.24 nM. For the same molecule, the Toxicity entry in data set [3] is “nontoxic”.
`COc1cccc2c1C(=O)c1c(O)c3c(c(O)c1C2=O)C[C@@](O)(C(=O)COC(=O)CCCC(=O)N[C@@H](CCC(N)=O)C(=O)N[C@@H](Cc1c[nH]c2ccccc12)C(=O)N[C@@H](C)C(=O)N[C@H](C(=O)NCC(=O)N[C@@H](Cc1c[nH]cn1)C(=O)N[C@H](CN[C@@H](CC(C)C)C(N)=O)CC(C)C)C(C)C)C[C@@H]3O[C@H]1C[C@H](N2C=CCC2)[C@H](O)[C@H](C)O1` [Q6^14 gB, 2-pyrrolino-DOX^14 -O-glt-Gln-Trp-Ala-Val-Gly-His-Leu.PSI.(CH2 --NH)Leu-NH2] showed a Ki in data set [4] of 1 nM.
With `COc1cccc2c1C(=O)c1c(O)c3c(c(O)c1C2=O)C[C@@](O)(C(=O)COC(=O)CCCC(=O)NCCCC[C@@H](NC(=O)[C@H](Cc1ccc(O)cc1)NC(=O)[C@H](CO)NC(=O)[C@H](Cc1c[nH]c2ccccc12)NC(=O)[C@H](Cc1c[nH]cn1)NC(=O)[C@@H]1CCC(=O)N1)C(=O)N[C@@H](CC(C)C)C(=O)N[C@@H](CCCNC(=N)N)C(=O)N1CCC[C@H]1C(=O)NCC(N)=O)C[C@@H]3O[C@H]1C[C@H](N2C=CCC2)[C@H](O)[C@H](C)O1` [Q6^14 gL, [D-Lys^6 (2-pyrrolino-DOX^14 -O-glt)]LH-RH], the half-inhibitory concentration (IC50) was 5.59 nM in data set [1] and 6.7 nM in data set [2].
On to `CC(C)C[C@H](NC(=O)[C@@H](CCCCN)NC(=O)[C@H](Cc1ccc(O)cc1)NC(=O)[C@H](CO)NC(=O)[C@H](Cc1c[nH]c2ccccc12)NC(=O)[C@H](Cc1c[nH]cn1)NC(=O)[C@@H]1CCC(=O)N1)C(=O)N[C@@H](CCCNC(=N)N)C(=O)N1CCC[C@H]1C(=O)NCC(N)=O` [[D-Lys^6]LH-RH], for which the “Hormonal activity (LH-responses rel. to LH-RH = 1)” value in data set [5] is listed as 8. The molecule also showed an IC50 in data set [2] of 1.8 nM. Moreover, in data set [6], the “Effect on tumor growth” value is listed as “did not affect tumor growth”, the “Mean survival after transplantation” value is 23.5 days, the “Mean tumor volume on day 10” value is given as 165 mm^3 and the “Mean tumor volume on day 14” value was 1348 mm^3. Moreover, the “Mean tumor volume on day 18” value in data set [6] is recorded as 4003 mm^3.
